Measured values reported in article PMC6843786, “Temporin-SHa and Its Analogs as Potential Candidates for the Treatment of Helicobacter pylori” (Biomolecules, 2019).
Non-standard residues stand in square brackets, D forms with d. Residues, ends and D or L forms follow the SMILES beside them.

Assays:
H. pylori (ATCC 43504) [1] = tested on: H. pylori (ATCC 43504)
Protocol: Briefly, after the growth of H. pylori in liquid culture the optical density (OD) of the bacterial suspensions were read at 600 nm and adjusted to one. Stock solutions of the peptides at 1 mM were prepared in sterile water. Bacteria were diluted in medium to reach bacterial density around 10^5 bacteria/mL. One-hundred microliters per well of bacterial suspension were then added into sterile polypropylene 96-well microplates (Greiner BioOne, Paris, France) and exposed to increasing concentrations of peptides (from zero to 100 µM, 1:2 serial dilution). […] Plates were incubated at 37 °C for 24 h for H. pylori (ATCC 43504) and for 4–7 days for the clinical strains. H. pylori was tested in microaerophilic conditions generated using micro-anaerobic BD GasPak system. At the end of the incubation, OD600nm was measured using microplate reader (Synergy Mx, Biotek, Colmar, France). The MIC was defined as the lowest concentration of drug that inhibited visible growth of the organism. Experiments were conducted in independent triplicate (n = 3).
It is also rich with mucus to protect it from the aggressive acidity. For this reason, the impact of mucins and pepsin on the activity of the peptides was investigated. The impact of the gastric mucins on peptide activity was evaluated using a combination of commercial porcine stomach mucins MUC2 and MUC3 (Sigma–Aldrich) at a final concentration of 1 mg/mL sterilized using 0.2 µm filter. This concentration was used based on the estimated concentration of mucins present in the mucus in vivo [27]. The effect of mucins on peptides activity was evaluated by MIC and by time killing assay as explained below. The resistance of the peptides to pepsin was tested as previously described with some changes. […] This concentration was used since it corresponds the pepsin concentration in the stomach (0.5–1 mg/mL).

H. pylori (ATCC 43504) [2] = assay: Membrane permeabilization assay (propidium iodide); settings: propidium iodide, CTAB 300 µM = 100%
Protocol: Bacterial membrane permeabilization was evaluated using the cell-impermeable DNA/RNA probe propidium iodide as previously explained. Logarithmic growing bacterial suspension of H. pylori (ATCC 43504) was prepared from overnight bacterial suspension after 1:10 dilution. After 3 h incubation at 37 °C, in microaerophilic condition, bacterial suspensions were centrifuged for 5 min at 3000× g. Cell pellets were then resuspended in sterile PBS at about […]. Propidium iodide (solution at 1 mg/mL, Sigma Aldrich) was then added to the suspension at a final concentration of 60 µM. 100 µL of this suspension were then transferred into 96-well black plates and were exposed to increasing concentrations of peptides obtained by serial dilution (from zero to 100 µM, 1:2 dilution). […] Kinetics of fluorescence variations (excitation at 530 nm and emission at 590 nm) were then recorded over 240 min of incubation at 37 °C in micro-aerobic condition using a microplate reader (Biotek, Synergy Mx). The effect of the peptides on the membrane integrity was expressed in percentage of permeabilization, CTAB at 300 µM being used as positive control giving 100% permeabilization. All experiments were done in triplicate.

human gastric explants = assay: Ex vivo toxicity assay, histological examination (H&E) of human gastric explants; format: cell-based; settings: 2, 4 or 8 h; peptides 100 µM, CTAB 300 µM; H&E staining
Protocol: To further evaluate the innocuity of the peptides, ex vivo experiments were performed using human explants as previously described. Briefly, human gastric tissue samples were obtained from patients undergoing surgery at the Hospital Laveran (Marseille, France), unit of gastrointestinal surgery according to a collaborative clinical transfer project. The procedures were approved by the French ethic committee (CODECOH n° DC-2019-3402). All patients agreed for the use of their tissues for research purposes. Samples were taken from healthy patients during sleeve gastrectomy from macroscopically unaffected area as identified by the surgeons. After resection, the specimens were placed in ice-cold oxygenated sterile DMEM solution containing 1% streptomycin/penicillin solution and 50 μg/mL gentamycin and were directly transferred to the laboratory within 15 min on ice. Gastric tissues were extensively washed and maintained in ice-cold culture media containing 1% streptomycin/penicillin solution and 50 μg/mL gentamycin. […] Quantification of the release of LDH was also used in addition to microscopic observations to evaluate the impact of peptides on human gastric explants. […] The LDH activity was measured using previously described protocol with minor changes. […] Increase in OD339nm was then measured at 30 °C after 0, 1, 5, and 10 min using microplate reader (Synergy Mx, Biotek). […]

CC[C@H](C)[C@H](NC(=O)CNC(=O)[C@H](CO)NC(=O)[C@H](CC(C)C)NC(=O)[C@@H](N)Cc1ccccc1)C(=O)N[C@H](C(=O)NCC(=O)N[C@@H](CCSC)C(=O)N[C@@H](CC(C)C)C(=O)N[C@H](C)C(=O)N[C@@H](CCCCN)C(=O)N[C@@H](CC(C)C)C(=O)N[C@@H](Cc1ccccc1)C(N)=O)C(C)C [NST1, H-Phe^1-Leu^2-Ser^3-Gly^4-Ile^5-Val^6-Gly^7-Met^8-Leu^9-D-Ala^10-Lys^11-Leu^12-Phe^13-NH2] (H-FLSGIVGML[dA]KLF-NH2)
increase of MIC in the presence of mucins (H. pylori (ATCC 43504) [1]; MUC2 and MUC3 at 1 mg/mL versus no mucins): two | MIC in the Presence of mucins (H. pylori (ATCC 43504) [1]; porcine gastric mucins MUC2 and MUC3 at 1 mg/mL): 3.12 µM | membrane permeabilization of H. pylori (ranking in words) (H. pylori (ATCC 43504) [2]): strongest permeabilization | tissue organization by microscopic observation (human gastric explants): tissue organization close to the negative controls
